Test results from patent publication EP0444659B1, “A pharmaceutical solution comprising derivatives of FK506” (FUJISAWA PHARMACEUTICAL CO., LTD., priority 1990, dated 1991).

Legend:
[1] = dilution of the solution with physiological saline: clarity, turbidity and crystal separation; format: physicochemical
Protocol: Nonaqueous solvent is, at the time of administrating into the human vascular tract, usually diluted with aqueous solvent such as physiological saline, since nonaqueous solvent has hemolysis action.
The experimental solution (1ml) of the following prescription 3 consisting of FK 506, surface active agent and nonaqueous solvent was diluted with physiological saline (100ml) to find that the clear appearance of prescription was kept unchanged.
Then several prescriptions of clear solution were further prepared altering the concentration of FK 506, the kind and the concentration of surface active agent, and were tested how change the clearity of the solution and whether separate out the crystal or not under the several condition of different degree of dilution.

[2] = remaining percentage of FK 506 in aqueous solution with large amount of surface active agent (storage stability); format: physicochemical; settings: FK 506 dissolved in water in the presence of large amount of surface active agent; Table 2 is an image

C=CCC1C=C(C)CC(C)CC(OC)C2OC(O)(C(=O)C(=O)N3CCCCC3C(=O)OC(C(C)=CC3CCC(O)C(OC)C3)C(C)C(O)CC1=O)C(C)CC2OC (centres unmarked) [FK 506, 17-allyl-1,14-dihydroxy-12-[2-(4-hydroxy-3-methoxycyclohexyl)-1-methylvinyl]-23, 25-dimethoxy-13,19,21,27-tetramethyl-11, 28-dioxa-4-azatricyclo-[22.3.1.0^4.9] octacos-18-ene-2,3,10,16-tetraone]
Period till solution becomes turbid to crystallize FK506 ([1]; FK 506 5 mg/ml, dilution times with physiological saline 100, HCO-60, ethanol/surface active agent 60/40): ≧7 days
Period till solution becomes turbid to crystallize FK506 ([1]; FK 506 5 mg/ml, dilution times with physiological saline 100, HCO-60, ethanol/surface active agent 80/20): ≧7 days
Period till solution becomes turbid to crystallize FK506 ([1]; FK 506 10 mg/ml, dilution times with physiological saline 2, Cremophor®EL, ethanol/surface active agent 35/65): ≧7 days
Period till solution becomes turbid to crystallize FK506 ([1]; FK 506 10 mg/ml, dilution times with physiological saline 2, Cremophor®EL, ethanol/surface active agent 80/20): ≧7 days
Period till solution becomes turbid to crystallize FK506 ([1]; FK 506 10 mg/ml, dilution times with physiological saline 2, HCO-40, ethanol/surface active agent 40/60): ≧7 days
Period till solution becomes turbid to crystallize FK506 ([1]; FK 506 10 mg/ml, dilution times with physiological saline 2, HCO-40, ethanol/surface active agent 80/20): ≧7 days
Period till solution becomes turbid to crystallize FK506 ([1]; FK 506 10 mg/ml, dilution times with physiological saline 2, HCO-60, ethanol/surface active agent 35/65): ≧7 days
Period till solution becomes turbid to crystallize FK506 ([1]; FK 506 10 mg/ml, dilution times with physiological saline 2, HCO-60, ethanol/surface active agent 60/40): ≧7 days
Period till solution becomes turbid to crystallize FK506 ([1]; FK 506 10 mg/ml, dilution times with physiological saline 2, HCO-60, ethanol/surface active agent 80/20): ≧7 days
Period till solution becomes turbid to crystallize FK506 ([1]; FK 506 10 mg/ml, dilution times with physiological saline 100, Cremophor®EL, ethanol/surface active agent 35/65): ≧7 days
Period till solution becomes turbid to crystallize FK506 ([1]; FK 506 10 mg/ml, dilution times with physiological saline 100, Cremophor®EL, ethanol/surface active agent 80/20): ≧7 days
Period till solution becomes turbid to crystallize FK506 ([1]; FK 506 10 mg/ml, dilution times with physiological saline 100, HCO-40, ethanol/surface active agent 40/60): ≧7 days
Period till solution becomes turbid to crystallize FK506 ([1]; FK 506 10 mg/ml, dilution times with physiological saline 100, HCO-40, ethanol/surface active agent 80/20): ≧7 days
Period till solution becomes turbid to crystallize FK506 ([1]; FK 506 10 mg/ml, dilution times with physiological saline 100, HCO-60, ethanol/surface active agent 35/65): ≧7 days
Period till solution becomes turbid to crystallize FK506 ([1]; FK 506 10 mg/ml, dilution times with physiological saline 100, HCO-60, ethanol/surface active agent 60/40): ≧7 days
Period till solution becomes turbid to crystallize FK506 ([1]; FK 506 10 mg/ml, dilution times with physiological saline 100, HCO-60, ethanol/surface active agent 80/20): ≧7 days
Period till solution becomes turbid to crystallize FK506 ([1]; FK 506 25 mg/ml, dilution times with physiological saline 2, Cremophor®EL, ethanol/surface active agent 35/65): ≧7 days
Period till solution becomes turbid to crystallize FK506 ([1]; FK 506 25 mg/ml, dilution times with physiological saline 2, Cremophor®EL, ethanol/surface active agent 80/20): ≧7 days
Period till solution becomes turbid to crystallize FK506 ([1]; FK 506 25 mg/ml, dilution times with physiological saline 2, HCO-40, ethanol/surface active agent 40/60): ≧7 days
Period till solution becomes turbid to crystallize FK506 ([1]; FK 506 25 mg/ml, dilution times with physiological saline 2, HCO-40, ethanol/surface active agent 80/20): ≧7 days
Period till solution becomes turbid to crystallize FK506 ([1]; FK 506 25 mg/ml, dilution times with physiological saline 2, HCO-60, ethanol/surface active agent 35/65): ≧7 days
Period till solution becomes turbid to crystallize FK506 ([1]; FK 506 25 mg/ml, dilution times with physiological saline 2, HCO-60, ethanol/surface active agent 60/40): ≧7 days
Period till solution becomes turbid to crystallize FK506 ([1]; FK 506 25 mg/ml, dilution times with physiological saline 2, HCO-60, ethanol/surface active agent 80/20): ≧7 days
Period till solution becomes turbid to crystallize FK506 ([1]; FK 506 25 mg/ml, dilution times with physiological saline 100, Cremophor®EL, ethanol/surface active agent 35/65): ≧7 days
Period till solution becomes turbid to crystallize FK506 ([1]; FK 506 25 mg/ml, dilution times with physiological saline 100, Cremophor®EL, ethanol/surface active agent 80/20): ≧1 days
Period till solution becomes turbid to crystallize FK506 ([1]; FK 506 25 mg/ml, dilution times with physiological saline 100, HCO-40, ethanol/surface active agent 40/60): ≧7 days
Period till solution becomes turbid to crystallize FK506 ([1]; FK 506 25 mg/ml, dilution times with physiological saline 100, HCO-40, ethanol/surface active agent 80/20): ≧1 days
Period till solution becomes turbid to crystallize FK506 ([1]; FK 506 25 mg/ml, dilution times with physiological saline 100, HCO-60, ethanol/surface active agent 35/65): ≧7 days
Period till solution becomes turbid to crystallize FK506 ([1]; FK 506 25 mg/ml, dilution times with physiological saline 100, HCO-60, ethanol/surface active agent 60/40): ≧1 days
Period till solution becomes turbid to crystallize FK506 ([1]; FK 506 25 mg/ml, dilution times with physiological saline 100, HCO-60, ethanol/surface active agent 80/20): ≧7 days
Period till solution becomes turbid to crystallize FK506 ([1]; FK 506 50 mg/ml, dilution times with physiological saline 2, Cremophor®EL, ethanol/surface active agent 35/65): ≧7 days
Period till solution becomes turbid to crystallize FK506 ([1]; FK 506 50 mg/ml, dilution times with physiological saline 2, Cremophor®EL, ethanol/surface active agent 80/20): ≧1 days
Period till solution becomes turbid to crystallize FK506 ([1]; FK 506 50 mg/ml, dilution times with physiological saline 2, HCO-40, ethanol/surface active agent 40/60): ≧7 days
Period till solution becomes turbid to crystallize FK506 ([1]; FK 506 50 mg/ml, dilution times with physiological saline 2, HCO-40, ethanol/surface active agent 80/20): ≧1 days
Period till solution becomes turbid to crystallize FK506 ([1]; FK 506 50 mg/ml, dilution times with physiological saline 2, HCO-60, ethanol/surface active agent 35/65): ≧7 days
Period till solution becomes turbid to crystallize FK506 ([1]; FK 506 50 mg/ml, dilution times with physiological saline 2, HCO-60, ethanol/surface active agent 60/40): ≧7 days
Period till solution becomes turbid to crystallize FK506 ([1]; FK 506 50 mg/ml, dilution times with physiological saline 2, HCO-60, ethanol/surface active agent 80/20): ≧7 days
remaining percentage of FK 506 in aqueous solution (storage stability) [2]: stability for long period storage is not expectable
